{"source": "patent US20260103485A1", "about": "“COMPOUND BASED ON OXIDATIVE STRESS AND ANTI-AMYLOID AGGREGATION MECHANISM, PREPARATION METHOD THEREFOR AND USE THEREOF” (SHENZHEN RAYTONE PHARMACEUTICAL CO., LTD, priority 2022, published 2026)", "key": {"[1]": {"test_system": "sodium selenite-induced New Zealand rabbit cataract model", "test": "Pharmacodynamic study on sodium selenite-induced New Zealand rabbit cataract model (slit lamp lens opacity grading)", "assay_type": "in vivo", "settings": "1.5% (w/w) eye drops; for Effect compared with the core fragment compound c (Gc) group / Effect compared with the core fragment compound d (Gd) group / Effect compared with the model group (MG): chi-square test, p<0.05; for Therapeutic effect on the sodium selenite-induced cataract model: conclusion; for Number of lenses with lens opacity grade I: Grade I: vacuoles in periphery or anterior cortex of lens; for Number of lenses with lens opacity grade II: Grade II: slightly increased density of lens nucleus; for Number of lenses with lens opacity grade III: Grade III: translucent lens nucleus; for Number of lenses with lens opacity grade IV: Grade IV: opacity of lens nucleus not involving cortex", "method": "Neonatal New Zealand rabbits were P7 days old in ordinary grade, and 5 baby rabbits per litter were breastfed with one mother rabbit.\nThe young rabbits were randomly divided into 6 groups with 5 rabbits in each group. • 1) Normal control group (CG): Normal feeding. • 2) Disease model group (MG): At day P10, young rabbits were injected subcutaneously with sodium selenite solution (in normal saline) at 20 μmol/kg body weight. After day P15, normal saline eye drops were dripped into the left eye 3 times a day for 30 consecutive days. • 3) Compound 1 group (group 1, G1): At day P10, young rabbits were injected subcutaneously with sodium selenite solution (in normal saline) at 20 μmol/kg body weight. After day P15, 1.5% (w/w) compound 1 eye drops were dripped into the left eye 3 times a day for 30 consecutive days. • 4) Compound 2 group (group 2, G2): At day P10, young rabbits were injected subcutaneously with sodium selenite solution (in normal saline) at 20 μmol/kg body weight of. After day P15, 1.5% (w/w) compound 2 eye drops were dripped into the left eye 3 times a day for 30 consecutive days. • 5) Compound c group (group c, Gc): At day P10, young rabbits were injected subcutaneously with sodium selenite solution (in normal saline) at 20 μmol/kg body weight. After day P15, 1.5% (w/w) compound c eye drops were dripped into the left eye 3 times a day for 30 consecutive days. • 6) 3,3′-dithiodipropionic acid group (group d, Gd): At day P10, young rabbits were injected subcutaneously with sodium selenite solution (in normal saline) at 20 μmol/kg body weight. After day P15, 1.5% (w/w) 3,3′-dithiodipropionic acid eye drops were dripped into the left eye 3 times a day for 30 consecutive days.\nSlit lamp observation: Slit lamp observation was performed on each group of sodium selenite-induced neonatal New Zealand rabbits before the administration, and 7 days, 14 days, and 30 days after the administration respectively, and the degree of lens opacity was graded to determine the therapeutic effect. Lens opacity grading standard [Hiraoka T, Clark J I. Inhibition of lens opacification during the early stages of cataract formation[J]."}, "[2]": {"test_system": "mice presbyopia model", "test": "Pharmacodynamic study on mice presbyopia model (lens thickness deformation under fixed pressure)", "assay_type": "in vivo, Mice (C57BL/6J)", "settings": "1.5% (w/w) eye drops; for Lens thickness (deformation): 8 months old C57BL/6J mice, left eye, 3 times a day, 45 consecutive days, micrometer screw after fixed pressure, 5 lenses; for Therapeutic effect on elastic recovery of aged mice: conclusion, 45 days", "text": "Mice (8 months old, C57BL/6J), normal grade.\nThe mice were randomly divided into 4 groups with 5 mice in each group. • 1) Model group (MG): normal saline eye drops were dripped into the left eye for 45 consecutive days, 3 times a day. • 2) Compound 1 Group (group 1, G1): 1.5% (w/w) compound 1 eye drops were dripped into the left eye for 45 consecutive days, 3 times a day. • 3) Compound 2 Group (group 2, G2): 1.5% (w/w) compound 2 eye drops were dripped into the left eye for 45 consecutive days, 3 times a day. • 4) 3,3′-dithiodipropionic acid group (group d, Gd): 1.5% (w/w) 3,3′-dithiodipropionic acid eye drops were dripped into the left eye for 45 consecutive days, 3 times a day.\nMeasurement of lens thickness deformation: After 45 consecutive days of eye dripping, mice were euthanized with carbon dioxide and flushed with saline. Lens thickness was measured using a micrometer screw after applying a fixed pressure."}, "[3]": {"settings": "of 5 lenses, left eye, 3 times a day, 30 consecutive days"}}, "note": "Entries after “also recorded” stand apart in the source; their conditions may differ."}
{"smiles": "C[C@H](CCCC(C)(C)OC(=O)CCSSCCC(=O)O)[C@H]1CC[C@@]2(C)C3=C(CC[C@]12C)[C@@]1(C)CC[C@H](OC(=O)CCSSCCC(=O)O)C(C)(C)[C@@H]1CC3", "note": "[Compound 2]", "values": [{"measurement": "Effect compared with the core fragment compound c (Gc) group", "setting": "[1]", "result": "significantly superior"}, {"measurement": "Effect compared with the core fragment compound d (Gd) group", "setting": "[1]", "result": "significantly superior"}, {"measurement": "Effect compared with the model group (MG)", "setting": "[1]", "result": "significantly superior"}, {"measurement": "Therapeutic effect on the sodium selenite-induced cataract model", "setting": "[1]", "result": "significant therapeutic effects; also recorded: best therapeutic effect"}, {"measurement": "Number of lenses with lens opacity grade I", "setting": "[1]; [3]", "result": 3}, {"measurement": "Number of lenses with lens opacity grade II", "setting": "[1]; [3]", "result": 1}, {"measurement": "Number of lenses with lens opacity grade III", "setting": "[1]; [3]", "result": 1}, {"measurement": "Lens thickness (deformation)", "setting": "[2]", "result": "1.51 ± 0.02"}, {"measurement": "Therapeutic effect on elastic recovery of aged mice", "setting": "[2]", "result": "significant therapeutic effects"}]}
{"smiles": "C[C@H](CCCC(C)(C)O)[C@H]1CC[C@@]2(C)C3=C(CC[C@]12C)[C@@]1(C)CC[C@H](O)C(C)(C)[C@@H]1CC3", "note": "[Compound c, reference compound]", "values": [{"measurement": "Number of lenses with lens opacity grade II", "setting": "[1]; [3]", "result": 2}, {"measurement": "Number of lenses with lens opacity grade III", "setting": "[1]; [3]", "result": 3}]}
{"smiles": "C[C@H](CCCC(C)(C)O)C1CC[C@@]2(C)C3=C(CC[C@]12C)[C@@]1(C)CC[C@H](OC(=O)CCSSCCC(=O)O)C(C)(C)[C@@H]1CC3", "note": "(stereo partly drawn) [Compound 1]", "values": [{"measurement": "Effect compared with the core fragment compound c (Gc) group", "setting": "[1]", "result": "significantly superior"}, {"measurement": "Effect compared with the core fragment compound d (Gd) group", "setting": "[1]", "result": "significantly superior"}, {"measurement": "Effect compared with the model group (MG)", "setting": "[1]", "result": "significantly superior"}, {"measurement": "Therapeutic effect on the sodium selenite-induced cataract model", "setting": "[1]", "result": "significant therapeutic effects"}, {"measurement": "Number of lenses with lens opacity grade I", "setting": "[1]; [3]", "result": 1}, {"measurement": "Number of lenses with lens opacity grade II", "setting": "[1]; [3]", "result": 2}, {"measurement": "Number of lenses with lens opacity grade III", "setting": "[1]; [3]", "result": 1}, {"measurement": "Number of lenses with lens opacity grade IV", "setting": "[1]; [3]", "result": 1}, {"measurement": "Lens thickness (deformation)", "setting": "[2]", "result": "1.42 ± 0.03"}, {"measurement": "Therapeutic effect on elastic recovery of aged mice", "setting": "[2]", "result": "significant therapeutic effects"}, {"measurement": "Therapeutic effect on elastic recovery of aged mice", "setting": "[2]; listed as G1", "result": "most significant effect"}]}
{"smiles": "O=C(O)CCSSCCC(=O)O", "note": "[3,3′-dithiodipropionic acid, reference compound]", "values": [{"measurement": "Number of lenses with lens opacity grade III", "setting": "[1]; [3]", "result": 1}, {"measurement": "Number of lenses with lens opacity grade IV", "setting": "[1]; [3]", "result": 2}, {"measurement": "Number of lenses with lens opacity grade V", "setting": "[1]; of 5 lenses, left eye, 3 times a day, 30 consecutive days, Grade V: opacity of lens nucleus and perinuclear cortex", "result": 1}, {"measurement": "Number of lenses with lens opacity grade VI", "setting": "[1]; of 5 lenses, left eye, 3 times a day, 30 consecutive days, Grade VI: complete opacity of lens", "result": 1}, {"measurement": "Lens thickness (deformation)", "setting": "[2]", "result": "1.55 ± 0.01"}]}
